# Experimental data taken from article PMC5988656, “Phase I studies of AZD1208, a proviral integration Moloney virus kinase inhibitor in solid and haematological cancers” (British Journal of Cancer, 2018).
# Test system: patients with recurrent or refractory AML
# Assay: AML dose-escalation study: safety and tolerability (AEs, DLTs)
# Type: in vivo, human
# From the text: Conducted at three centres in the USA and one in Canada. Dose escalation followed a conventional 3 + 3 design. […] In the first cohort, dosing between the first and subsequent patients was staggered with a 7-day interval. Dose-escalation decisions were based on the safety and tolerability data from ≥3 evaluable patients (or six if one of the first three patients experienced a dose-limiting toxicity [DLT]).
# AZD1208 could be escalated by up to 100% in subsequent cohorts until one DLT was observed, after which succeeding doses were escalated by up to 50%.
# In the case of a DLT, the cohort was expanded to six patients. If a DLT occurred in ≥2 patients within a cohort, the dose was determined to be a non-tolerated dose (NTD) and dose escalation was stopped.
# Grade 3 or 4 toxicities not attributable to the disease or disease-related processes under investigation, and occurring before the end of Cycle 1, were considered DLTs.
# The NTD was identified as the dose at which ≥2 DLTs occurred in a given cohort.
structure (smiles),measurement,setting,value
N[C@@H]1CCCN(c2c(/C=C3\SC(=O)NC3=O)cccc2-c2ccccc2)C1 [AZD1208],Abdominal pain (all-grade AE),"120 mg, n = 4",1 (25.0) n (%)
same,Asthenia (all-grade AE),"120 mg, n = 4",1 (25.0) n (%)
same,Chills (all-grade AE),"120 mg, n = 4",0 n (%)
same,Cough (all-grade AE),"120 mg, n = 4",0 n (%)
same,Decreased appetite (all-grade AE),"120 mg, n = 4",0 n (%)
same,Dehydration (all-grade AE),"120 mg, n = 4",0 n (%)
same,Diarrhoea (all-grade AE),"120 mg, n = 4",1 (25.0) n (%)
same,Dyspnoea (all-grade AE),"120 mg, n = 4",0 n (%)
same,Fatigue (all-grade AE),"120 mg, n = 4",1 (25.0) n (%)
same,Febrile neutropenia (all-grade AE),"120 mg, n = 4",3 (75.0) n (%)
same,Headache (all-grade AE),"120 mg, n = 4",0 n (%)
same,Hyperglycaemia (all-grade AE),"120 mg, n = 4",0 n (%)
same,Hypocalcaemia (all-grade AE),"120 mg, n = 4",1 (25.0) n (%)
same,Hypokalaemia (all-grade AE),"120 mg, n = 4",0 n (%)
same,Hypomagnesaemia (all-grade AE),"120 mg, n = 4",1 (25.0) n (%)
same,Hypophosphataemia (all-grade AE),"120 mg, n = 4",1 (25.0) n (%)
same,Hypotension (all-grade AE),"120 mg, n = 4",1 (25.0) n (%)
same,Maculopapular rash (all-grade AE),"120 mg, n = 4",0 n (%)
same,Nausea (all-grade AE),"120 mg, n = 4",3 (75.0) n (%)
same,Oedema peripheral (all-grade AE),"120 mg, n = 4",1 (25.0) n (%)
same,Patients with any AE (all-grade AE),"120 mg, n = 4",3 (75.0) n (%)
same,Pneumonia (all-grade AE),"120 mg, n = 4",1 (25.0) n (%)
same,Pyrexia (all-grade AE),"120 mg, n = 4",0 n (%)
same,Rash (all-grade AE),"120 mg, n = 4",0 n (%)
same,Renal failure acute (all-grade AE),"120 mg, n = 4",0 n (%)
same,Stomatitis (all-grade AE),"120 mg, n = 4",1 (25.0) n (%)
same,Vision blurred (all-grade AE),"120 mg, n = 4",1 (25.0) n (%)
same,Vomiting (all-grade AE),"120 mg, n = 4",2 (50.0) n (%)
same,Patients in whom AZD1208 was discontinued as a result of SAEs and AEs,"240 mg (bacteremia, peristomal ulcer)",1 n
same,Abdominal pain (all-grade AE),"240 mg, n = 6",0 n (%)
same,Asthenia (all-grade AE),"240 mg, n = 6",0 n (%)
same,Chills (all-grade AE),"240 mg, n = 6",1 (16.7) n (%)
same,Cough (all-grade AE),"240 mg, n = 6",1 (16.7) n (%)
same,"DLT detail, action taken","240 mg, n = 6","Peristomal ulcer, drug permanently discontinued"
same,Decreased appetite (all-grade AE),"240 mg, n = 6",1 (16.7) n (%)
same,Dehydration (all-grade AE),"240 mg, n = 6",0 n (%)
same,Diarrhoea (all-grade AE),"240 mg, n = 6",1 (16.7) n (%)
same,Dyspnoea (all-grade AE),"240 mg, n = 6",1 (16.7) n (%)
same,Fatigue (all-grade AE),"240 mg, n = 6",1 (16.7) n (%)
same,Febrile neutropenia (all-grade AE),"240 mg, n = 6",2 (33.3) n (%)
same,Headache (all-grade AE),"240 mg, n = 6",0 n (%)
same,Hyperglycaemia (all-grade AE),"240 mg, n = 6",0 n (%)
same,Hypocalcaemia (all-grade AE),"240 mg, n = 6",1 (16.7) n (%)
same,Hypokalaemia (all-grade AE),"240 mg, n = 6",0 n (%)
same,Hypomagnesaemia (all-grade AE),"240 mg, n = 6",1 (16.7) n (%)
same,Hypophosphataemia (all-grade AE),"240 mg, n = 6",0 n (%)
same,Hypotension (all-grade AE),"240 mg, n = 6",2 (33.3) n (%)
same,Maculopapular rash (all-grade AE),"240 mg, n = 6",1 (16.7) n (%)
same,Nausea (all-grade AE),"240 mg, n = 6",4 (66.7) n (%)
same,Oedema peripheral (all-grade AE),"240 mg, n = 6",1 (16.7) n (%)
same,Patients with any AE (all-grade AE),"240 mg, n = 6",6 (100.0) n (%)
same,Pneumonia (all-grade AE),"240 mg, n = 6",3 (50.0) n (%)
same,Pyrexia (all-grade AE),"240 mg, n = 6",0 n (%)
same,Rash (all-grade AE),"240 mg, n = 6",0 n (%)
same,Renal failure acute (all-grade AE),"240 mg, n = 6",1 (16.7) n (%)
same,Stomatitis (all-grade AE),"240 mg, n = 6",1 (16.7) n (%)
same,Vision blurred (all-grade AE),"240 mg, n = 6",0 n (%)
same,Vomiting (all-grade AE),"240 mg, n = 6",3 (50.0) n (%)
same,Patients in whom AZD1208 was discontinued as a result of SAEs and AEs,"480 mg (vomiting, gingival pain)",2 n
same,Abdominal pain (all-grade AE),"480 mg, n = 6",1 (16.7) n (%)
same,Asthenia (all-grade AE),"480 mg, n = 6",1 (16.7) n (%)
same,Chills (all-grade AE),"480 mg, n = 6",0 n (%)
same,Cough (all-grade AE),"480 mg, n = 6",1 (16.7) n (%)
same,"DLT detail, action taken","480 mg, n = 6","Fatigue, drug interrupted"
same,Decreased appetite (all-grade AE),"480 mg, n = 6",0 n (%)
same,Dehydration (all-grade AE),"480 mg, n = 6",0 n (%)
same,Diarrhoea (all-grade AE),"480 mg, n = 6",3 (50.0) n (%)
same,Dyspnoea (all-grade AE),"480 mg, n = 6",2 (33.3) n (%)
same,Fatigue (all-grade AE),"480 mg, n = 6",4 (66.7) n (%)
same,Febrile neutropenia (all-grade AE),"480 mg, n = 6",0 n (%)
same,Headache (all-grade AE),"480 mg, n = 6",3 (50.0) n (%)
same,Hyperglycaemia (all-grade AE),"480 mg, n = 6",2 (33.3) n (%)
same,Hypocalcaemia (all-grade AE),"480 mg, n = 6",1 (16.7) n (%)
same,Hypokalaemia (all-grade AE),"480 mg, n = 6",3 (50.0) n (%)
same,Hypomagnesaemia (all-grade AE),"480 mg, n = 6",2 (33.3) n (%)
same,Hypophosphataemia (all-grade AE),"480 mg, n = 6",2 (33.3) n (%)
same,Hypotension (all-grade AE),"480 mg, n = 6",2 (33.3) n (%)
same,Maculopapular rash (all-grade AE),"480 mg, n = 6",0 n (%)
same,Nausea (all-grade AE),"480 mg, n = 6",1 (16.7) n (%)
same,Oedema peripheral (all-grade AE),"480 mg, n = 6",3 (50.0) n (%)
same,Patients with any AE (all-grade AE),"480 mg, n = 6",6 (100.0) n (%)
same,Pneumonia (all-grade AE),"480 mg, n = 6",2 (33.3) n (%)
same,Pyrexia (all-grade AE),"480 mg, n = 6",1 (16.7) n (%)
same,Rash (all-grade AE),"480 mg, n = 6",1 (16.7) n (%)
same,Renal failure acute (all-grade AE),"480 mg, n = 6",2 (33.3) n (%)
same,Stomatitis (all-grade AE),"480 mg, n = 6",3 (50.0) n (%)
same,Vision blurred (all-grade AE),"480 mg, n = 6",3 (50.0) n (%)
same,Vomiting (all-grade AE),"480 mg, n = 6",2 (33.3) n (%)
same,Patients in whom AZD1208 was discontinued as a result of SAEs and AEs,"700 mg (lung infection, GBS, Escherichia spp. sepsis)",3 n
same,Abdominal pain (all-grade AE),"700 mg, n = 7",3 (42.9) n (%)
same,Asthenia (all-grade AE),"700 mg, n = 7",1 (14.3) n (%)
same,Chills (all-grade AE),"700 mg, n = 7",1 (14.3) n (%)
same,Cough (all-grade AE),"700 mg, n = 7",4 (57.1) n (%)
same,"DLT detail, action taken","700 mg, n = 7","GBS, drug permanently discontinued"
same,Decreased appetite (all-grade AE),"700 mg, n = 7",2 (28.6) n (%)
same,Dehydration (all-grade AE),"700 mg, n = 7",0 n (%)
same,Diarrhoea (all-grade AE),"700 mg, n = 7",5 (71.4) n (%)
same,Dyspnoea (all-grade AE),"700 mg, n = 7",2 (28.6) n (%)
same,Fatigue (all-grade AE),"700 mg, n = 7",2 (28.6) n (%)
same,Febrile neutropenia (all-grade AE),"700 mg, n = 7",1 (14.3) n (%)
same,Headache (all-grade AE),"700 mg, n = 7",1 (14.3) n (%)
